Laboratory results from patent US20060069132A1, “Azolecarboxamide herbicides” (priority 2004, published 2006).

Legend:
wheat = test: Test B postemergence herbicide test; format: in vivo, Triticum aestivum; set-up: key to Wheat plant response rating: 0 = no effect, 100 = complete control
Method in brief: (§1)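 Postemergence plants were sprayed with formulated test chemicals at 2 to 18 cm height (1- to 4-leaf stage); paddy species were grown to the 2-leaf stage. After 13 to 15 days in a greenhouse, injury was rated visually against untreated controls on a 0–100 scale (0 = no effect, 100 = complete control).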

cocklebur = test: Test B pre-/postemergence herbicide test; format: in vivo, Xanthium strumarium
Method in brief: (§2)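 Greenhouse pot assay with simultaneous preemergence (treated seed) and postemergence (2–18 cm seedlings) applications of surfactant-containing, non-phytotoxic solvent formulations. Response scored visually 13–15 days later on a 0–100 scale, 100 meaning complete control.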

blackgrass = test: Test B postemergence herbicide test; format: in vivo, Alopecurus myosuroides
Method in brief: (§3)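 Greenhouse test; postemergence application to plants at 1–4 leaves (2–18 cm); paddy species at 2 leaves; evaluated visually vs controls at 13–15 days; scale 0–100 (100 = complete control).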

barnyardgrass [1] = test: Test B flooded paddy test; format: in vivo, Echinochloa crus-galli; details: 1000 g ai/ha, scale 0 to 100 (0 no effect, 100 complete control)
Method in brief: as §3

lambsquarters = test: Test B pre-/postemergence herbicide test; format: in vivo, Chenopodium album
Method in brief: (§4)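 Plants compared with untreated controls 13–15 days post-treatment and given a visual 0–100 injury score. Applications: preemergence to seeds; postemergence at 1- to 4-leaf (2–18 cm); paddy species flooded, 2-leaf stage. Vehicle non-phytotoxic, surfactant included.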

[2] = tested on: small flower umbrella sedge; test: Test B flooded paddy test; format: in vivo, Cyperus difformis; details: 1000 g ai/ha, scale 0 to 100 (0 no effect, 100 complete control)
Method in brief: as §3

rice = test: Test B flooded paddy test; format: in vivo, Oryza sativa; details: 1000 g ai/ha, scale 0 to 100 (0 no effect, 100 complete control)
Method in brief: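 Formulated test chemicals went onto postemergence plants measuring 2 to 18 cm, at one to four leaves. For the paddy assay, species had reached two leaves. Scoring took place 13–15 days later by eye, relative to untreated plants, using 0 for no effect up to 100 for full control.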

large crabgrass = test: Test B pre-/postemergence herbicide test; format: in vivo, Digitaria sanguinalis
Method in brief: as §4

corn = test: Test B pre-/postemergence herbicide test; format: in vivo, Zea mays
Method in brief: as §4

velvetleaf = test: Test B pre-/postemergence herbicide test; format: in vivo, Abutilon theophrasti
Method in brief: as §4

barnyardgrass [3] = test: Test B pre-/postemergence herbicide test; format: in vivo, Echinochloa crus-galli
Method in brief: as §2

Surinam grass = test: Test B pre-/postemergence herbicide test; format: in vivo, Urochloa decumbens
Method in brief: as §4

wild oat = test: Test B postemergence herbicide test; format: in vivo, Avena fatua
Method in brief: as §1

morningglory = test: Test B pre-/postemergence herbicide test; format: in vivo, Ipomoea coccinea
Method in brief: as §2

ducksalad = test: Test B flooded paddy test; format: in vivo, Heteranthera limosa; details: 1000 g ai/ha, scale 0 to 100 (0 no effect, 100 complete control)
Method in brief: as §3

[4] = postemergence, 125 g ai/ha; visual rating, scale 0 (no effect) to 100 (complete control)
[5] = postemergence, 500 g ai/ha; visual rating, scale 0 (no effect) to 100 (complete control)
[6] = 125 g ai/ha; 0 = no effect, 100 = complete control; preemergence
[7] = 500 g ai/ha; visual rating 0-100, 0 no effect, 100 complete control; preemergence
[8] = 125 g ai/ha; visual rating, scale 0 (no effect) to 100 (complete control); postemergence
[9] = postemergence, 500 g ai/ha; scale 0 to 100, 0 is no effect, 100 is complete control
[10] = 125 g ai/ha; 0 is no effect, 100 is complete control; preemergence
[11] = 500 g ai/ha; visual rating, 0 = no effect, 100 = complete control; preemergence

## CCNC(=O)c1ccc(F)c(NC(=O)c2cn(C(C)(C)C)nc2CC)c1 [Compound 193]
wheat; [4]
  Wheat plant response rating: 10
wheat; [5]
  Wheat plant response rating: 10
cocklebur; [6]
  Cocklebur plant response rating (0 to 100 scale): 10
cocklebur; [7]
  Plant response rating, Cocklebur: 70
cocklebur; [4]
  Cocklebur plant response rating: 20
cocklebur; [5]
  Cocklebur plant response rating: 70
blackgrass; [4]
  Blackgrass plant response rating: 0
blackgrass; [5]
  Blackgrass plant response rating: 20
Barnyardgrass [1]; visual rating, 13 to 15 days
  Barnyardgrass plant response rating: 80
lambsquarters; [6]
  Lambsquarters plant response rating (0 to 100 scale): 100
lambsquarters; [7]
  Plant response rating, Lambsquarters: 100
lambsquarters; [4]
  Lambsquarters plant response rating: 90
lambsquarters; [5]
  Lambsquarters plant response rating: 90
[2]; visual rating, 13 to 15 days
  Sedge, Umbrella plant response rating: 80
rice; visual rating, 13 to 15 days
  Rice plant response rating: 80
Large crabgrass; [6]
  Crabgrass, Large plant response rating (0 to 100 scale): 100
Large crabgrass; [7]
  Plant response rating, Crabgrass, Large: 100
Large crabgrass; [4]
  Crabgrass, Large plant response rating: 10
Large crabgrass; [5]
  Crabgrass, Large plant response rating: 10
corn; [6]
  Corn plant response rating (0 to 100 scale): 70
corn; [7]
  Plant response rating, Corn: 100
corn; [4]
  Corn plant response rating: 10
corn; [5]
  Corn plant response rating: 20
velvetleaf; [6]
  Velvetleaf plant response rating (0 to 100 scale): 70
velvetleaf; [7]
  Plant response rating, Velvetleaf: 100
velvetleaf; [4]
  Velvetleaf plant response rating: 50
velvetleaf; [5]
  Velvetleaf plant response rating: 70
Barnyardgrass [3]; [6]
  Barnyardgrass plant response rating (0 to 100 scale): 90
Barnyardgrass [3]; [7]
  Plant response rating, Barnyardgrass: 100
Barnyardgrass [3]; [4]
  Barnyardgrass plant response rating: 0
Barnyardgrass [3]; [5]
  Barnyardgrass plant response rating: 10
Surinam grass; [6]
  Surinam Grass plant response rating (0 to 100 scale): 80
Surinam grass; [7]
  Plant response rating, Surinam Grass: 100
Surinam grass; [4]
  Surinam Grass plant response rating: 10
Surinam grass; [5]
  Surinam Grass plant response rating: 10
Wild oat; [4]
  Oat, Wild plant response rating: 0
Wild oat; [5]
  Oat, Wild plant response rating: 0
morningglory; [6]
  Morningglory plant response rating (0 to 100 scale): 40
morningglory; [7]
  Plant response rating, Morningglory: 100
morningglory; [4]
  Morningglory plant response rating: 30
morningglory; [5]
  Morningglory plant response rating: 70
ducksalad; visual rating, 13 to 15 days
  Ducksalad plant response rating: 90

## CCn1nc(C(C)(C)C)cc1C(=O)Nc1cc(OC(F)(F)F)ccc1F [Compound 338]
wheat; [8]
  Wheat plant response rating: 0
wheat; [9]
  Wheat plant response rating: 10
cocklebur; [10]
  Plant response rating (0 to 100 scale), Cocklebur: 0
cocklebur; [8]
  Cocklebur plant response rating: 10
cocklebur; [11]
  Plant response rating, Cocklebur: 0
cocklebur; [9]
  Cocklebur plant response rating: 10
blackgrass; [8]
  Blackgrass plant response rating: 20
blackgrass; [9]
  Blackgrass plant response rating: 40
Barnyardgrass [1]
  Barnyardgrass plant response rating: 40
lambsquarters; [10]
  Plant response rating (0 to 100 scale), Lambsquarters: 60
lambsquarters; [8]
  Lambsquarters plant response rating: 10
lambsquarters; [11]
  Plant response rating, Lambsquarters: 100
lambsquarters; [9]
  Lambsquarters plant response rating: 50
[2]
  Sedge, Umbrella plant response rating: 80
rice
  Rice plant response rating: 30
Large crabgrass; [10]
  Plant response rating (0 to 100 scale), Crabgrass, Large: 80
Large crabgrass; [8]
  Crabgrass, Large plant response rating: 20
Large crabgrass; [11]
  Plant response rating, Crabgrass, Large: 100
Large crabgrass; [9]
  Crabgrass, Large plant response rating: 60
corn; [10]
  Plant response rating (0 to 100 scale), Corn: 10
corn; [8]
  Corn plant response rating: 10
corn; [11]
  Plant response rating, Corn: 10
corn; [9]
  Corn plant response rating: 20
velvetleaf; [8]
  Velvetleaf plant response rating: 20
velvetleaf; [9]
  Velvetleaf plant response rating: 50
Barnyardgrass [3]; [10]
  Plant response rating (0 to 100 scale), Barnyardgrass: 20
Barnyardgrass [3]; [8]
  Barnyardgrass plant response rating: 20
Barnyardgrass [3]; [11]
  Plant response rating, Barnyardgrass: 80
Barnyardgrass [3]; [9]
  Barnyardgrass plant response rating: 40
Surinam grass; [10]
  Plant response rating (0 to 100 scale), Surinam Grass: 20
Surinam grass; [8]
  Surinam Grass plant response rating: 20
Surinam grass; [11]
  Plant response rating, Surinam Grass: 60
Surinam grass; [9]
  Surinam Grass plant response rating: 40
Wild oat; [8]
  Oat, Wild plant response rating: 0
Wild oat; [9]
  Oat, Wild plant response rating: 40
morningglory; [10]
  Plant response rating (0 to 100 scale), Morningglory: 0
morningglory; [8]
  Morningglory plant response rating: 60
morningglory; [11]
  Plant response rating, Morningglory: 10
morningglory; [9]
  Morningglory plant response rating: 100
ducksalad
  Ducksalad plant response rating: 60

## CCN(CC)C(=O)c1cccc(NC(=O)c2sc(C(C)(C)C)nc2C)c1 [Compound 199]
wheat; [4]
  Wheat plant response rating: 0
wheat; [5]
  Wheat plant response rating: 10
cocklebur; [6]
  Cocklebur plant response rating (0 to 100 scale): 0
cocklebur; [7]
  Plant response rating, Cocklebur: 0
cocklebur; [4]
  Cocklebur plant response rating: 10
cocklebur; [5]
  Cocklebur plant response rating: 60
blackgrass; [4]
  Blackgrass plant response rating: 0
blackgrass; [5]
  Blackgrass plant response rating: 10
Barnyardgrass [1]; visual rating, 13 to 15 days
  Barnyardgrass plant response rating: 10
lambsquarters; [6]
  Lambsquarters plant response rating (0 to 100 scale): 80
lambsquarters; [7]
  Plant response rating, Lambsquarters: 90
lambsquarters; [4]
  Lambsquarters plant response rating: 60
lambsquarters; [5]
  Lambsquarters plant response rating: 70
[2]; visual rating, 13 to 15 days
  Sedge, Umbrella plant response rating: 10
rice; visual rating, 13 to 15 days
  Rice plant response rating: 20
Large crabgrass; [6]
  Crabgrass, Large plant response rating (0 to 100 scale): 90
Large crabgrass; [7]
  Plant response rating, Crabgrass, Large: 100
Large crabgrass; [4]
  Crabgrass, Large plant response rating: 10
Large crabgrass; [5]
  Crabgrass, Large plant response rating: 10
corn; [6]
  Corn plant response rating (0 to 100 scale): 0
corn; [7]
  Plant response rating, Corn: 10
corn; [4]
  Corn plant response rating: 10
corn; [5]
  Corn plant response rating: 20
velvetleaf; [6]
  Velvetleaf plant response rating (0 to 100 scale): 0
velvetleaf; [7]
  Plant response rating, Velvetleaf: 60
velvetleaf; [4]
  Velvetleaf plant response rating: 20
velvetleaf; [5]
  Velvetleaf plant response rating: 30
Barnyardgrass [3]; [6]
  Barnyardgrass plant response rating (0 to 100 scale): 20
Barnyardgrass [3]; [7]
  Plant response rating, Barnyardgrass: 90
Barnyardgrass [3]; [4]
  Barnyardgrass plant response rating: 0
Barnyardgrass [3]; [5]
  Barnyardgrass plant response rating: 10
Surinam grass; [6]
  Surinam Grass plant response rating (0 to 100 scale): 10
Surinam grass; [7]
  Plant response rating, Surinam Grass: 70
Surinam grass; [4]
  Surinam Grass plant response rating: 10
Surinam grass; [5]
  Surinam Grass plant response rating: 20
Wild oat; [4]
  Oat, Wild plant response rating: 10
Wild oat; [5]
  Oat, Wild plant response rating: 10
morningglory; [6]
  Morningglory plant response rating (0 to 100 scale): 0
morningglory; [7]
  Plant response rating, Morningglory: 60
morningglory; [4]
  Morningglory plant response rating: 40
morningglory; [5]
  Morningglory plant response rating: 60
ducksalad; visual rating, 13 to 15 days
  Ducksalad plant response rating: 0
